Data taken from patent US20250332173A1, “COMPOUNDS AND METHODS FOR MODULATING NUCLEIC ACID SPLICING” (REMIX THERAPEUTICS INC., priority 2021, published 2025).
pIC50: −log10 of the molar value. Structures can show the parent of a compound that is named as a salt.

How the values were obtained:
Target C = experiment: RT-qPCR splicing assay panel, Target C canonical junction (CJ) mRNA; type: cell-based, human; conditions: Homo sapiens; Table 5 panel; canonical junction qPCR; compound concentration having 50% response in CJ decrease; read-out: Target C IC50 (decrease in CJ mRNA levels)
Outline: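 K562/A673 cells, 11-pt 3-fold compound titration from 10 uM final, DMSO ≤0.25%, 24 h 37 °C 5% CO2; lyse (DNase I or Igepal/Tris buffer pH 7.4); RT-qPCR for CJ isoform vs housekeeping gene (GAPDH/GUSB/PPIA).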

MYB = experiment: HiBiT protein abundance assay, MYB HiBiT K562 cell line; type: cell-based, human; conditions: HiBiT K562 cell line, 24 hours, top dose 10 μM; read-out: Effect on protein abundance, MYB (IC50 category)
Outline: (§1)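 Endogenous targets in K562 knock-in lines carried a HiBiT tag and were treated for 24 h at 37 °C with 10-point 3-fold dilutions (top 10 μM final, DMSO ≤0.25%). Abundance was read as lytic Nano-Glo HiBiT luminescence. IC50 came from a four-parameter logistic fit of normalized response.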

HTT = experiment: HiBiT protein abundance assay, HTT HiBiT K562 cell line; type: cell-based, human; conditions: HiBiT K562 cell line, 24 hours, top dose 10 μM; read-out: Effect on protein abundance, HTT (IC50 category)
Outline: as §1

[1] = test system: K562 (human chronic myelogenous leukemia) cells; experiment: Cell Titer Glo 2.0 cell viability assay; type: cell-based; conditions: Homo sapiens, K562, 72 h, K562 cells, 72 hours, Cell Titer Glo 2.0; read-out: K562 GI50

Structure (SMILES) | pIC50 (Target C) | pIC50 (MYB) | pIC50 (HTT) | GI50 [1]
CNc1cc(-c2cc(C)c3nc(C)cn3n2)cc2ccn([C@@H]3CCNC3)c(=O)c12 [Compound 648, 6-(2,8-dimethylimidazo[1,2-b]pyridazin-6-yl)-8-(methylamino)-2-[(3R)-pyrrolidin-3-yl]isoquinolin-1-one] | < 5.00 | 5.00 to 6.00 | < 5.00 | 1000 to 10000 nM
Cn1ccc2nn(-c3ccc4c(=O)n(C5CCNCC5)ccc4c3)cc2c1=O [Compound 522, 6-{5-methyl-4-oxopyrazolo[4,3-c]pyridin-2-yl}-2-(piperidin-4-yl)isoquinolin-1-one] | < 5.00 | 5.00 to 6.00 | < 5.00 | 1000 to 10000 nM
CC(=O)Nc1cc(-c2cc(C)c3nc(C)cn3n2)cc2ccn([C@H]3CCNC3)c(=O)c12 [Compound 649, N-[6-(2,8-dimethylimidazo[1,2-b]pyridazin-6-yl)-1-oxo-2-[(3S)-pyrrolidin-3-yl]-8-isoquinolyl]acetamide] | < 5.00 | 5.00 to 6.00 | 5.00 to 6.00 | 1000 to 10000 nM
Cc1nc2c(C)cc(-c3ccc4c(=O)n(C5CCNC6(CC6)C5)ncc4c3)cc2o1 (centres unmarked) [Compound 513] | 5.00 to 6.00 | 5.00 to 6.00 | 6.00 to 7.00 | 1000 to 10000 nM
CNC(=O)c1cc(-c2ccc3c(=O)n(C4CCNCC4)ccc3c2)nn2cc(C)nc12 [Compound 518, N, 2-dimethyl-6-[1-oxo-2-(4-piperidyl)-6-isoquinolyl]imidazo[1,2-b]pyridazine-8-carboxamide] | < 5.00 | 5.00 to 6.00 | 5.00 to 6.00 | 1000 to 10000 nM
Cc1cn2nc(-c3ccc4c(=O)n(C5CCNCC5)ccc4c3)cc(Oc3cccc(F)c3)c2n1 [Compound 545, 6-[8-(3-fluorophenoxy)-2-methyl-imidazo[1,2-b]pyridazin-6-yl]-2-(4-piperidyl)isoquinolin-1-one; hydrochloride] | > 7.00 | > 7.00 | > 7.00 | < 100 nM
Cc1cn2nc(-c3ccc4c(=O)n(C5CCNCC5)ccc4c3)cc(-n3ccccc3=O)c2n1 [Compound 552, 6-[2-methyl-8-(2-oxo-1-pyridyl)imidazo[1,2-b]pyridazin-6-yl]-2-(4-piperidyl)isoquinolin-1-one] | < 5.00 | 5.00 to 6.00 | < 5.00 | > 10000 nM
Cc1cn2cc(-c3cc(F)c4c(=O)n(C5CCNCC5)cnc4c3)cc(C#N)c2n1 [Compound 588] | 6.00 to 7.00 | 6.00 to 7.00 | 5.00 to 6.00 | 1000 to 10000 nM
COc1cccc(Oc2cc(-c3ccc4c(=O)n(C5CCNCC5)ccc4c3)nn3cc(C)nc23)c1 [Compound 547, 6-[8-(3-methoxyphenoxy)-2-methyl-imidazo[1,2-b]pyridazin-6-yl]-2-(4 piperidyl) isoquinolin-1-one] | > 7.00 | > 7.00 | > 7.00 | < 100 nM
Cc1cn2cc(-c3ccc4c(=O)n(C5CCNCC5)ccc4c3)cc(C#N)c2n1 [Compound 560, 2-methyl-6-[1-oxo-2-(piperidin-4-yl)isoquinolin-6-yl]imidazo[1,2-a]pyridine-8-carbonitrile] | 5.00 to 6.00 | 6.00 to 7.00 | 6.00 to 7.00 | 100 to 1000 nM
Cc1cn2nc(-c3ccc4c(=O)n(C5CCNCC5)ccc4c3)cc(Oc3ccccc3F)c2n1 [Compound 544, 6-[8-(2-fluorophenoxy)-2-methyl-imidazo[1,2-b]pyridazin-6-yl]-2-(4-piperidyl) isoquinolin-1-one; hydrochloride] | > 7.00 | > 7.00 | > 7.00 | 100 to 1000 nM
Cc1cn2nc(-c3cc(O)c4c(=O)n(C5CCN(CCF)CC5)ncc4c3)cc(C)c2n1 [Compound 553] | 6.00 to 7.00 | 6.00 to 7.00 | > 7.00 | 100 to 1000 nM
Cc1cn2nc(-c3ccc4c(=O)n(C5CCNCC5)ccc4c3)cc(C(=O)O)c2n1 [Compound 516, 2-methyl-6-[1-oxo-2-(4-piperidyl)-6-isoquinolyl]imidazo[1,2-b]pyridazine-8-carboxylic acid] | 5.00 to 6.00 | 5.00 to 6.00 | 5.00 to 6.00 | 1000 to 10000 nM
Cc1cn2nc(-c3cc(O)c4c(=O)n(C5CCN(C)CC5)ncc4c3)cc(C)c2n1 [Compound 543] | 6.00 to 7.00 | 6.00 to 7.00 | > 7.00 | 100 to 1000 nM
Cc1cn2cc(-c3cc(F)c4c(=O)n([C@@H]5C[C@@H](C)N[C@@H](C)C5)ccc4c3)cc(F)c2n1 [Compound 642, 2-[(2S,6R)-2,6-dimethyl-4-piperidyl]-8-fluoro-6-(8-fluoro-2-methyl-imidazo[1,2-a]pyridin-6-yl)isoquinolin-1-one] | 5.00 to 6.00 | 6.00 to 7.00 | 6.00 to 7.00 | 1000 to 10000 nM
COC(=O)Cc1cc(-c2ccc3c(=O)n(C4CCNCC4)ccc3c2)nn2cc(C)nc12 [Compound 527] | 5.00 to 6.00 | 6.00 to 7.00 | 6.00 to 7.00 | 1000 to 10000 nM
Cc1cn2cc(-c3cc(F)c4c(=O)n(C5CC(C)NC(C)C5)ccc4c3)cc(F)c2n1 (centres unmarked) [Compound 651] | 6.00 to 7.00 | > 7.00 | > 7.00 | < 100 nM
